Key:
[1] = system: kanR* gene on target plasmid; test: kanR* reversion assay (frequency of kanamycin-resistant colonies); format: cell-based, E. coli
Description: Three DNA elements were added to E. coli to create a targeted error-prone artificial replisome: a constitutively-expressed, chromosomal CisA gene, a target vector plasmid and a helper vector plasmid (FIG. 1A-1B and FIG. 5). The target vector contained the gene(s) of interest targeted for mutagenesis between the CisA initiation and termination sequences. To quantify the increase in mutagenesis, mutagenesis was targeted to the gene for a kanamycin resistance protein (aminoglycoside phosphotransferase (3)-IIIa). This gene, named kanR*, carried a single nucleotide substitution (A785C), which encodes an E262A amino acid substitution that inactivates the kanamycin resistance (Thompson et al., J Biol Chem, 274 (43): 30697-30706, (1999)). Mutations that reverse this substitution will restore gene function, allowing the cells to grow in the presence of kanamycin. Resistant colony-forming unit (CFU) per pl of full density culture (frequency of resistant CFU per cell plated) is used as a readout for mutagenic capacity. The helper plasmid contains a gene encoding the fusion of the error-prone T5 DNA polymerase to the Rep helicase under the control of a T7 promoter. (The host cell also contains a chromosomal gene to express the T7 RNA polymerase and a deletion of the chromosomal Rep gene to eliminate potential competition with the fusion protein.)
The DNA polymerase activity of the T5 DNA polymerase-Rep helicase fusion protein was measured by its capacity to mutate the target, kanR* and restore kanamycin resistance. The bacteria, in this Example, contained all three elements of the targeted error-prone artificial replisome: a constitutively-expressed, chromosomal CisA gene, the target plasmid carrying the kanR* gene flanked by the initiation and termination sequences, and the helper plasmid expressing the T5 DNA polymerase-Rep helicase fusion protein. These cells were picked from a transformation plate, propagated in liquid for ten generations to accumulate mutations and then plated onto kanamycin-containing media for selection.
KanR* reversion assay was used. Three transformations were carried out, all into the host cell for TADR, as shown in FIG. 2C: the helper plasmid with the wildtype T5 polymerase co-transformed with the target plasmid; the helper plasmid with the error-prone T5 polymerase mutant, with the target plasmid without the recognition and termination sequences; the helper plasmid with the error-prone T5 polymerase mutant, with the target plasmid. Transformant colonies were selected on LB agar plates supplemented with 15 ng/μl chloramphenicol and 50 ng/μl ampicillin and inoculated to a liquid LB cultures with chloramphenicol and ampicillin. After overnight growth, 50 μl culture from each sample was plated on LB plates supplemented with 30 ng/μl kanamycin. After 16 h incubation at 37° C., colonies were counted.

DNA = details: cited from earlier work
[2] = system: bacteria lacking endogenous Rep helicase; test: assay of sensitivity to nalidixic acid (Rep helicase activity); format: cell-based, E. coli; details: 2.5 ng/μl nalidixic acid; rep- cells with helper plasmid
Description: The Rep helicase activity of the T5 DNA polymerase-Rep helicase fusion was measured by its ability to alleviate growth retardation caused by nalidixic acid in a strain lacking endogenous Rep helicase (Henderson et al., PLOS ONE, 10 (5): e0128092, (2015)). Bacteria normally tolerate low levels of nalidixic acid, but bacteria lacking endogenous Rep helicase grow more slowly because nalidixic acid inhibits DNA gyrase and topoisomerase.
Assay of sensitivity to nalidixic acid was used(Henderson et al., PLOS ONE, 10 (5): e0128092, (2015)). Three cell lines were prepared, namely TADR cells modified to have intact chromosomal rep, TADR cells (rep-) and TADR cells (rep-) transformed with helper plasmid (expressing the fusion protein). A Rep gene knockout mutation was P1-transduced from Keio-collection(Baba et al., Mol Syst Biol, 2 2006.0008-2006.0008, (2006)) into the host cell for using standard technique of molecular cloning(Green, (2012)). The helper plasmid was transformed into this rep-cell and selected on LB agar plate supplemented with 50 ng/μl ampicillin. From this cell line together with other two—the host cell for, its rep-derivative, single colonies were inoculated into liquid LB culture (ampicillin was added to cultures of the first cell line). […]

primed DNA substrate [3] = details: cited from earlier work
[4] = six-His tag linked to C-terminus; cited from earlier work
primed DNA substrate [5] = test: association of DNA polymerase with primed DNA substrate; format: binding; details: local effective concentration of polymerase 0.2-0.6 mM; kon of T7 assumed
Description: The artificial replisome must simultaneously unwind DNA and copy the exposed strand to prevent degradation of the exposed ssDNA, which causes genetic instability. In addition, DNA synthesis must avoid premature termination within the target region. Connecting Rep helicase and T5 DNA polymerase with a flexible linker increases the local effective concentrations to an estimated 0.2-0.6 mM(Li et al., Protein Sci, 27 (9): 1600-1610, (2018)) in order to achieve both of these goals. The CisA protein recruits Rep helicase to the target region and stabilizes it. Rep helicase unwinds DNA at about 144 base-pairs/s (Arslan et al., Science (New York, N.Y.), 348 (6232): 344-347, (2015)), so DNA synthesis must initiate at least that fast to proceed simultaneously. The bimolecular association rate constant of T7 DNA polymerase (kon) for primed DNA substrate is 3.6×10^7M^−1s^−1 (Luo et al., Proceedings of the National Academy of Sciences, 104 (31): 12610-12615, (2007)) and it was assumed T5 DNA polymerase associates at a similar rate. If the local effective concentration of polymerase is 0.2-0.6 mM, then the rate of association is 7200-22,000 s^−1, which far exceeds the rate of unwinding. […]

Molecule: fusion containing RepΔC33: fusion protein in which the 33 C-terminal amino acids of Rep helicase were deleted; SEQ ID NO:10
- frequency of kanamycin-resistant colonies, fold over control whose target plasmid was without initiation sequence ([1]; LB): 67 fold
- increase in selectivity from RepΔC33 versus wildtype Rep ([1]; LB): 16 fold

Molecule: E. coli PolA: E. coli DNA polymerase I, slower than Rep helicase
- speed of DNA unwinding or DNA synthesis (DNA): ~15 base-pairs/s

Molecule: T5 DNA polymerase-Rep helicase fusion protein: T5 DNA polymerase (D164A, E166A, A593R) linked by 81-amino acid linker to Rep helicase; SEQ ID NO:22
- effect on nalidixic acid inhibition of growth [2]: partially alleviated
- frequency of kanamycin-resistant colonies, fold over control whose target plasmid was without initiation sequence ([1]; LB): 4.2 fold
- frequency of kanamycin-resistant colonies, fold increase over control with wildtype T5 DNA polymerase ([1]; LB, wildtype Rep, T5 D164A, E166A, A593R): 128 fold
- increase in mutation rate from engineered 5′ UTR ([1]; stem-loop designed into 5′ UTR of the fusion gene): up to 150 fold

B1: T7 DNA polymerase: bacteriophage T7 DNA polymerase, used in the initial failed TADR (protein, UniProt P00581 1-704, looked up)
DNA-directed DNA polymerase: MIVSDIEANALLESVTKFHCGVIYDYSTAEYVSYRPSDFGAYLDALEAEVARGGLIVFHNGHKYDVPALTKLAKLQLNREFHLPRENCIDTLVLSRLIHSNLKDTDMGLLRSGKLPGKRFGSHALEAWGYRLGEMKGEYKDDFKRMLEEQGEEYVDGMEWWNFNEEMMDYNVQDVVVTKALLEKLLSDKHYFPPEIDFTDVGYTTFWSESLEAVDIEHRAAWLLAKQERNGFPFDTKAIEELYVELAARRSELLRKLTETFGSWYQPKGGTEMFCHPRTGKPLPKYPRIKTPKVGGIFKKPKNKAQREGREPCELDTREYVAGAPYTPVEHVVFNPSSRDHIQKKLQEAGWVPTKYTDKGAPVVDDEVLEGVRVDDPEKQAAIDLIKEYLMIQKRIGQSAEGDKAWLRYVAEDGKIHGSVNPNGAVTGRATHAFPNLAQIPGVRSPYGEQCRAAFGAEHHLDGITGKPWVQAGIDASGLELRCLAHFMARFDNGEYAHEILNGDIHTKNQIAAELPTRDNAKTFIYGFLYGAGDEKIGQIVGAGKERGKELKKKFLENTPAIAALRESIQQTLVESSQWVAGEQQVKWKRRWIKGLDGRKVHVRSPHAALNTLLQSAGALICKLWIIKTEEMLVEKGLKHGWDGDFAYMAWVHDEIQVGCRTEEIAQVVIETAQEAMRWVGDHWNFRCLLDTEGKMGPNWAICH
- bimolecular association rate constant (kon) (primed DNA substrate [3]): 3.6e+07 M⁻¹ s⁻¹
- targeted mutagenesis ([1]; TADR implemented with T7 DNA polymerase): no targeted mutagenesis was seen

B2: I308V: self-evolved variant of error-prone T5 DNA polymerase with single I308V substitution; SEQ ID NO:3 (protein)
chain: MKIAVVDKALNNTRYDKHFQLYGEEVDVFHMCNEKLSGRLLKKHITIGTPENPFDPNDYDFVILVGAEPFLYFAGKKGIGDYTGKRVEYNGYANWIASISPAQLHFKPEMKPVFDATVENIHDIINGREKIAKAGDYRPITDPDEAEEYIKMVYNMVIGPVAFASATSALYCRDGYLLGVSISHQEYQGVYIDSDCLTEVAVYYLQKILDSENHTIVFHNLKFDMHFYKYHLGLTFDKAHKERRLHDTMLQHYVLDERRGTHGLKSLAMKYTDMGDYDFELDKFKDDYCKAHKIKKEDFTYDLIPFDVMWPYAAKDTDATIRLHNFFLPKIEKNEKLCSLYYDVLMPGCVFLQRVEDRGVPISIDRLKEAQYQLTHNLNKAREKLYTYPEVKQLEQDQNEAFNPNSVKQLRVLLFDYVGLTPTGKLTDTGADSTDAEALNELATQHPIAKTLLEIRKLTKLISTYVEKILLSIDADGCIRTGFHEHMTTSGRLSSSGKLNLQQLPRDESIIKGCVVAPPGYRVIAWDLTTAEVYYAAVLSGDRNMQQVFINMRNEPDKYPDFHSNIAHMVFKLQCEPRDVKKLFPALRQAAKRITFGILYGSGPAKVAHSVNEALLEQAAKTGEPFVECTVADAKEYIETYFGQFPQLKRWIDKCHDQIKNHGFIYSHFGRKRRLHNIHSEDRGVQGEEIRSGFNAIIQSASSDSLLLGAVDADNEIISLGLEQEMKIVMLVHDSVVAIVREDLIDQYNEILIRNIQKDRGISIPGCPIGIDSDSEAGGSRDYSCGKMKKQHPSIACIDDDEYTRYVKGVLLDAEFEYKKLAAMDKEHPDHSKYKDDKFIAVCKDLDNVKRILGA
- increase in mutation rate (kanamycin-resistant CFU) from self-evolution / I308V ([1]; versus ancestor error-prone T5 DNA polymerase): 3.2 fold

B3: T5 DNA polymerase: DNA polymerase of bacteriophage T5, NCBI YP_006950.1, SEQ ID NO:1 (protein)
chain: MKIAVVDKALNNTRYDKHFQLYGEEVDVFHMCNEKLSGRLLKKHITIGTPENPFDPNDYDFVILVGAEPFLYFAGKKGIGDYTGKRVEYNGYANWIASISPAQLHFKPEMKPVFDATVENIHDIINGREKIAKAGDYRPITDPDEAEEYIKMVYNMVIGPVAFDSETSALYCRDGYLLGVSISHQEYQGVYIDSDCLTEVAVYYLQKILDSENHTIVFHNLKFDMHFYKYHLGLTFDKAHKERRLHDTMLQHYVLDERRGTHGLKSLAMKYTDMGDYDFELDKFKDDYCKAHKIKKEDFTYDLIPFDIMWPYAAKDTDATIRLHNFFLPKIEKNEKLCSLYYDVLMPGCVFLQRVEDRGVPISIDRLKEAQYQLTHNLNKAREKLYTYPEVKQLEQDQNEAFNPNSVKQLRVLLFDYVGLTPTGKLTDTGADSTDAEALNELATQHPIAKTLLEIRKLTKLISTYVEKILLSIDADGCIRTGFHEHMTTSGRLSSSGKLNLQQLPRDESIIKGCVVAPPGYRVIAWDLTTAEVYYAAVLSGDRNMQQVFINMRNEPDKYPDFHSNIAHMVFKLQCEPRDVKKLFPALRQAAKAITFGILYGSGPAKVAHSVNEALLEQAAKTGEPFVECTVADAKEYIETYFGQFPQLKRWIDKCHDQIKNHGFIYSHFGRKRRLHNIHSEDRGVQGEEIRSGFNAIIQSASSDSLLLGAVDADNEIISLGLEQEMKIVMLVHDSVVAIVREDLIDQYNEILIRNIQKDRGISIPGCPIGIDSDSEAGGSRDYSCGKMKKQHPSIACIDDDEYTRYVKGVLLDAEFEYKKLAAMDKEHPDHSKYKDDKFIAVCKDLDNVKRILGA
modifications: Escherichia virus T5
- effect of six-His tag on polymerase activity [4]: did not interfere with polymerase activity
- rate of association (primed DNA substrate [5]): 7200-22,000 s^−1
